Values of other authors in patent publication US6419954B1, “Tablets and methods for modified release of hydrophilic and other active agents” (Yamanouchi Pharmaceutical Co., Ltd., priority 2000, dated 2002).
Structures can show the parent of a compound that is named as a salt. Where two headings read alike, the source gives them in different places.

Details: at 25° C.

water solubility (hemihydrate): about 766 mg/ml | water solubility (listed as SNI-2011, hemihydrate): about 1,400 mg/ml
SMILES: CC1OC2(CS1)CN1CCC2CC1 (racemic) [Cevimeline HCl, (+/−)-cis-2-methylspiro [1,3-oxathiolane-5,3′-quinuclidine]hydrochloride, hemihydrate]
